Assay results: patent US20230152324A1, “TUMOR-INTRINSIC NLRP3 INFLAMMASOME SIGNALING PATHWAY AS A GENETIC AND FUNCTIONAL BIOMARKER FOR IMMUNOTHERAPY RESPONSE” (Duke University, priority 2021, published 2023)

Assays:
[1] = test system: autochthonous BRAF^V600EPTEN^−/− melanoma model; experiment: Autochthonous (transgenic) BRAFV600EPTEN−/− melanoma model treated with anti-PD-1 ± MCC950 or anti-HSP70 antibody; format: in vivo, mouse
Text: Prior studies have described disease hyper-progression (HPD) occurring in response to anti-PD-1 immunotherapy, a phenomenon estimated by some authors to develop in ˜10% of all solid tumors (5). In HPD, tumor burden can dramatically increase in response to exposure to anti-PD-1 immunotherapy. Given our prior data describing a role for the tumor-intrinsic NLRP3-HSP70 signaling axis as an important driver of PMN-MDSC accumulation in distant lung tissues in response to anti-PD-1 immunotherapy, we hypothesized that this same tumor-intrinsic signaling pathway can establish an immunologic environment capable of facilitating HPD. […]
B6.Cg-Braf^tm1Mmcm Pten^tm1Hwu Tg(Tyr-cre/ERT2 H-2^b)13Bos/BosJ transgenic mice were subdermally injected with 4-Hydroxytamoxifen (4-HT) (Sigma, H6278-50MG CCF, 38.75 μg/mouse) to induce primary melanoma development at the base of the tail. […] Primary tumor volumes were monitored by orthogonal caliper measurements every 3 days. Tumor volume was calculated according to the formula: cm^3=[(length, cm)×(width, cm)^2]/2.
Small representative tissue specimens were harvested from tumors and lungs and stored in RNAlater at −80° C. […] Total RNA was isolated by RNeasy Plus Mini Kit (Qiagen, 74134) and RNA was quantified by NanoDrop. […] All data were normalized to Actb expression and relative gene expression was quantitated based on the 2ΔΔCt method. […]

[2] = test system: BRAF^V600EPTEN^−/− melanoma-bearing NLRP3^−/− mice; experiment: Anti-PD-1 alone or with MCC950 in BRAFV600EPTEN−/− melanoma-bearing NLRP3−/− mice; format: in vivo, mouse
[3] = test system: non-tumor-bearing mice; experiment: Recombinant HSP70 i.p. delivery into non-tumor-bearing mice (lung Western blot, flow cytometry); format: in vivo, mouse; conditions: rHSP70 i.p. vs normal saline
Text: (§1) Indeed, while we were able to detect soluble HSP70 as a secretion product of human melanoma cell lines, we were not able to detect the production of active IL-1β (FIGS. 12B and C). […] We have previously shown that the tumor-intrinsic NLRP3 inflammasome drives PMN-MDSC recruitment via an autocrine signaling pathway dependent on soluble HSP70 (19). […] To determine whether HSP70 could play the role of a soluble mediator in the induction of CXCR2-dependent chemokines in the distant lung, we delivered recombinant HSP70 (rHSP70) into non-tumor-bearing mice by intra-peritoneal (i.p.) injection and measured CXCL5 expression by whole lung tissue Western blot analysis as well as PMN-MDSC accumulation in the lung by flow cytometry. […] Based on these cumulative findings, we hypothesized that tumor-derived HSP70 signals through TLR4 to promote PMN-MDSC trafficking to these distant tissues. […]
Cells (1-2×10^6) were diluted in 150 μl flow buffer per well of V bottom culture plates, incubated with Live/Dead Stain (Sigma) on ice for 20 mins, washed twice, and incubated with Fc Block (anti-CD16/CD32, 2 ug/mL) before staining with appropriate conjugated antibodies. Cells were washed, resuspended in 2% paraformaldehyde for 15 mins at 4° C., and analyzed using a BD FACSCanto flow cytometry system. […]

[4] = test system: CD45^−EpCAM^+ lung epithelial cells of TLR4^f/f and SPC-TLR4^−/− mice; experiment: rHSP70 i.p. in TLR4f/f and SPC-TLR4−/− transgenic mice, qrt-PCR of sorted lung epithelial cells; format: in vivo, mouse; conditions: rHSP70 i.p. vs saline
Text: as §1
Small representative tissue specimens were harvested from tumors and lungs and stored in RNAlater at −80° C. […] Total RNA was isolated by RNeasy Plus Mini Kit (Qiagen, 74134) and RNA was quantified by NanoDrop. […]

[5] = test system: MLE12 lung epithelial cells; experiment: MLE12 lung epithelial cell line Western blot after rHSP70 ± TLR4 inhibitor or recombinant Wnt5a; format: cell-based, murine; conditions: for G-CSF expression: in vitro lung epithelial cells

CC(C)(O)c1coc(S(=O)(=O)NC(=O)Nc2c3c(cc4c2CCC4)CCC3)c1 [MCC950]
metastatic progression to the lung ([1]; MCC950 with anti-PD-1, S100β IHC and TRP2 qrt-PCR): inhibiting metastatic progression | PMN-MDSC populations in the lung ([1]; MCC950 with anti-PD-1 vs anti-PD-1): suppress PMN-MDSC populations in the lung | anti-PD-1-induced accumulation of PMN-MDSCs into lung tissues ([2]; MCC950 in combination with anti-PD-1, lung tissue and BALF): largely eliminated | upregulation of Wnt5a expression in lung tissues ([2]; MCC950 with anti-PD-1, Western blot): suppress the upregulation of Wnt5a expression in lung tissues

rHSP70: recombinant HSP70 delivered by intra-peritoneal injection or added to cells
CXCL5 expression in whole lung tissue ([3]; Western blot): induce CXCL5 expression | PMN-MDSC accumulation in the lung ([3]; flow cytometry): promote the accumulation of PMN-MDSCs in lung tissues | Wnt5a and Cxcl5 expression in lung epithelial cells [4]: upregulated only in lung epithelial cells expressing TLR4 | Wnt5a expression ([5]; MLE12 cells, rHSP70 ± TLR4 inhibitor): induce Wnt5a expression in a TLR4-dependent manner | G-CSF expression [5]: induce modest G-CSF upregulation

B1: Wnt5a: recombinant Wnt5a (R&D Systems/Bio-techne, 645-WN-010) used to treat cell lines (protein, UniProt P22725 62-380, looked up)
Protein Wnt-5a: IIGAQPLCSQLAGLSQGQKKLCHLYQDHMQYIGEGAKTGIKECQYQFRHRRWNCSTVDNTSVFGRVMQIGSRETAFTYAVSAAGVVNAMSRACREGELSTCGCSRAARPKDLPRDWLWGGCGDNIDYGYRFAKEFVDARERERIHAKGSYESARILMNLHNNEAGRRTVYNLADVACKCHGVSGSCSLKTCWLQLADFRKVGDALKEKYDSAAAMRLNSRGKLVQVNSRFNSPTTQDLVYIDPSPDYCVRNESTGSLGTQGRLCNKTSEGMDGCELMCCGRGYDQFKTVQTERCHCKFHWCCYVKCKKCTEIVDQFVCK
G-CSF expression [5]: more immediate driver of G-CSF
